Experimental data from US10407425B2, “Indazole inhibitors of the Wnt signal pathway and therapeutic uses thereof” (Samumed, LLC, priority 2012, dated 2019).

System: Wnt activity
Assay: Wnt activity reporter assay (SP5 promoter firefly luciferase in SW480 cells)
Format: cell-based
Conditions: Homo sapiens; SW480 cells bearing SP5 promoter luciferase reporter; 24 h after compound addition; read-out: Wnt inhibition
From the text: The above synthesized compounds were screened using the assay procedure for Wnt activity described below.
Reporter cell lines can be generated by stably transducing cells of cancer cell lines (e.g., colon cancer) with a lentiviral construct that include a wnt-responsive promoter driving expression of the firefly luciferase gene.
Lentiviral constructs can be made in which the SP5 promoter, a promoter having eight TCF/LEF binding sites derived from the SP5 promoter, is linked upstream of the firefly luciferase gene. The lentiviral constructs can also include a hygromycin resistance gene as a selectable marker. The SP5 promoter construct can be used to transduce SW480 cells, a colon cancer cell line having a mutated APC gene that generates a truncated APC protein, leading to de-regulated accumulation of β-catenin.
Cultured SW480 cells bearing a reporter construct can be distributed at approximately 10,000 cells per well into 384 well multiwell plates. Compounds from a small molecule compound library can then be added to the wells in half-log dilutions using a three micromolar top concentration. A series of control wells for each cell type receive only buffer and compound solvent. Twenty-four hours after the addition of compound, reporter activity for luciferases can be assayed, for example, by addition of the BrightGlo luminescence reagent (Promega) and the Victor3 plate reader (Perkin Elmer). Readings can be normalized to DMSO only treated cells, and normalized activities can then be used in the IC50 calculations.

| IC50 [nM] | SMILES |
| --- | --- |
| 5 | CC(C)CC(=O)Nc1cncc(-c2ccc3[nH]nc(-c4nc5c(-c6cc(F)cc(CNS(C)(=O)=O)c6)cncc5[nH]4)c3c2)c1 [Compound 373, N-(5-(3-(7-(3-Fluoro-5-(methylsulfonamidomethyl)phenyl)-3H-imidazo[4,5-c]pyridin-2-yl)-1H-indazol-5-yl)pyridin-3-yl)-3-methylbutanamide] |
| 141 | O=C(Nc1cncc(-c2ccc3[nH]nc(-c4nc5ccncc5[nH]4)c3c2)c1)c1ccccc1 [Compound 275, N-(5-(3-(3H-Imidazo[4,5-c]pyridin-2-yl)-1H-indazol-5-yl)pyridin-3-yl)benzamide] |
| 69 | CN(C)Cc1cncc(-c2ccc3[nH]nc(-c4nc5c(-c6ccsc6)cncc5[nH]4)c3c2)c1 [Compound 301, N,N-Dimethyl-1-(5-(3-(7-(thiophen-3-yl)-3H-imidazo[4,5-c]pyridin-2-yl)-1H-indazol-5-yl)pyridin-3-yl)methanamine] |
| 7 | O=C(Nc1cncc(-c2ccc3[nH]nc(-c4nc5c(-c6ccc(F)cc6)cncc5[nH]4)c3c2)c1)c1ccccc1 [Compound 104, N-(5-(3-(7-(4-Fluorophenyl)-3H-imidazo[4,5-c]pyridin-2-yl)-1H-indazol-5-yl)pyridin-3-yl)benzamide] |
| 55 | Fc1cccc(-c2cncc3[nH]c(-c4n[nH]c5ccc(-c6cncc(CN7CCC(F)(F)C7)c6)cc45)nc23)c1 [Compound 336, 2-(5-(5-((3,3-Difluoropyrrolidin-1-yl)methyl)pyridin-3-yl)-1H-indazol-3-yl)-7-(3-fluorophenyl)-3H-imidazo[4,5-c]pyridine] |
| 5 | CC(C)(C)C(=O)Nc1cncc(-c2ccc3[nH]nc(-c4nc5c(-c6ccoc6)cncc5[nH]4)c3c2)c1 [Compound 319, N-(5-(3-(7-(Furan-3-yl)-3H-imidazo[4,5-c]pyridin-2-yl)-1H-indazol-5-yl)pyridin-3-yl)pivalamide] |
| 33 | O=C(Cc1ccccc1)Nc1cncc(-c2ccc3[nH]nc(-c4nc5c(-c6ccoc6)cncc5[nH]4)c3c2)c1 [Compound 321, N-(5-(3-(7-(Furan-3-yl)-3H-imidazo[4,5-c]pyridin-2-yl)-1H-indazol-5-yl)pyridin-3-yl)-2-phenylacetamide] |
| 4 | CC(C)(C)C(=O)Nc1cncc(-c2ccc3[nH]nc(-c4nc5c(-c6ccc(F)cc6)cncc5[nH]4)c3c2)c1 [Compound 102, N-(5-(3-(7-(4-Fluorophenyl)-3H-imidazo[4,5-c]pyridin-2-yl)-1H-indazol-5-yl)pyridin-3-yl)pivalamide] |
| 10 to 13 | c1cncc(-c2ccc3[nH]nc(-c4nc5c(N6CCOCC6)cncc5[nH]4)c3c2)c1 [Compound 6, 4-(2-(5-(pyridin-3-yl)-1H-indazol-3-yl)-3H-imidazo[4,5-c]pyridin-7-yl)morpholine] |
| 140 to 150 | CC(C)CC(=O)Nc1cncc(-c2ccc3[nH]nc(-c4nc5c(N6CCN(C)CC6)cncc5[nH]4)c3c2)c1 [Compound 1, 3-methyl-N-(5-(3-(7-(4-methylpiperazin-1-yl)-3H-imidazo[4,5-c]pyridin-2-yl)-1H-indazol-5-yl)pyridin-3-yl)butanamide] |
| 35 | c1cncc(-c2ccc3[nH]nc(-c4nc5c(-c6cccnc6)cncc5[nH]4)c3c2)c1 [Compound 136, 7-(Pyridin-3-yl)-2-(5-(pyridin-3-yl)-1H-indazol-3-yl)-3H-imidazo[4,5-c]pyridine] |
| 39 | FC1(F)CCN(Cc2cncc(-c3ccc4[nH]nc(-c5nc6c(-c7cccnc7)cncc6[nH]5)c4c3)c2)C1 [Compound 339, 2-(5-(5-((3,3-Difluoropyrrolidin-1-yl)methyl)pyridin-3-yl)-1H-indazol-3-yl)-7-(pyridin-3-yl)-3H-imidazo[4,5-c]pyridine] |
| 315 | CN1CCN(c2cncc3[nH]c(-c4n[nH]c5ccc(-c6cncc(NC(=O)C7CC7)c6)cc45)nc23)CC1 [Compound 260, N-(5-(3-(7-(4-Methylpiperazin-1-yl)-3H-imidazo[4,5-c]pyridin-2-yl)-1H-indazol-5-yl)pyridin-3-yl)cyclopropanecarboxamide] |
| 5 | CC(C)C(=O)Nc1cncc(-c2ccc3[nH]nc(-c4nc5c(-c6ccccc6F)cncc5[nH]4)c3c2)c1 [Compound 31, N-(5-(3-(7-(2-Fluorophenyl)-3H-imidazo[4,5-c]pyridin-2-yl)-1H-indazol-5-yl)pyridin-3-yl)isobutyramide] |
| 41 | CC(C)(C)C(=O)Nc1cncc(-c2ccc3[nH]nc(-c4nc5c(N6CCCCC6)cncc5[nH]4)c3c2)c1 [Compound 205, N-(5-(3-(7-(Piperidin-1-yl)-3H-imidazo[4,5-c]pyridin-2-yl)-1H-indazol-5-yl)pyridin-3-yl)pivalamide] |
| 22 | c1cncc(-c2ccc3[nH]nc(-c4nc5c(-c6ccoc6)cncc5[nH]4)c3c2)c1 [Compound 315, 7-(Furan-3-yl)-2-(5-(pyridin-3-yl)-1H-indazol-3-yl)-3H-imidazo[4,5-c]pyridine] |
| 1 | Nc1cncc(-c2ccc3[nH]nc(-c4nc5c(-c6ccc(F)cc6)cncc5[nH]4)c3c2)c1 [Compound 97, 5-(3-(7-(4-Fluorophenyl)-3H-imidazo[4,5-c]pyridin-2-yl)-1H-indazol-5-yl)pyridin-3-amine] |
| 535 | Cc1ccncc1-c1ccc2[nH]nc(-c3nc4c(N5CCCCC5)cncc4[nH]3)c2c1 [Compound 202, 2-(5-(4-Methylpyridin-3-yl)-1H-indazol-3-yl)-7-(piperidin-1-yl)-3H-imidazo[4,5-c]pyridine] |
| > 10000 | O=C(Cc1ccccc1)Nc1cncc(-c2ccc3[nH]nc(-c4nc5ccncc5[nH]4)c3c2)c1 [Compound 274, N-(5-(3-(3H-Imidazo[4,5-c]pyridin-2-yl)-1H-indazol-5-yl)pyridin-3-yl)-2-phenylacetamide] |
| 42 | CCCC(=O)Nc1cncc(-c2ccc3[nH]nc(-c4nc5c(N6CCCCC6)cncc5[nH]4)c3c2)c1 [Compound 214, N-(5-(3-(7-(Piperidin-1-yl)-3H-imidazo[4,5-c]pyridin-2-yl)-1H-indazol-5-yl)pyridin-3-yl)butyramide] |
| 14 | Fc1ccccc1-c1cncc2[nH]c(-c3n[nH]c4ccc(-c5cncc(CN6CCCCC6)c5)cc34)nc12 [Compound 127, 7-(2-Fluorophenyl)-2-(5-(5-(piperidin-1-ylmethyl)pyridin-3-yl)-1H-indazol-3-yl)-3H-imidazo[4,5-c]pyridine] |
| 373 | Cc1ccncc1-c1ccc2[nH]nc(-c3nc4c(-c5ccncc5)cncc4[nH]3)c2c1 [Compound 154, 2-(5-(4-Methylpyridin-3-yl)-1H-indazol-3-yl)-7-(pyridin-4-yl)-3H-imidazo[4,5-c]pyridine] |
